Source: US8853216B2, “Hydroxylated pyrimidyl cyclopentane as AKT protein kinase inhibitor” (Array BioPharma, Inc., priority 2008, dated 2014)

Biological target: full-length human recombinant active AKT-1 (Homo sapiens, UniProt P31749)
Experiment: AKT-1 Kinase Assay (IMAP fluorescence polarization)
Format: biochemical
Conditions: phosphorylation of fluorescein-labeled Crosstide peptide by AKT-1, 60 minute incubation at ambient temperature
From the text: The activity of the compound described in the present invention may be determined by the following kinase assay, which measures the phosphorylation of a fluorescently-labeled peptide by full-length human recombinant active AKT-1 by fluorescent polarization using a commercially available IMAP kit.
The assay materials are obtained from an IMAP AKT Assay Bulk Kit, product #R8059, from Molecular Devices, Sunnyvale, Calif. The kit materials include an IMAP Reaction Buffer (5×). The diluted 1×IMAP Reaction Buffer contained 10 mM Tris-HCl, pH 7.2, 10 mM MgCl2, 0.1% BSA, 0.05% NaN3. DTT is routinely added to a final concentration of 1 mM immediately prior to use. Also included is IMAP Binding Buffer (5×), and IMAP Binding Reagent. The Binding Solution is prepared as a 1:400 dilution of IMAP Binding Reagent into 1×IMAP Binding Buffer.
The fluorescein-labeled AKT Substrate (Crosstide) has the sequence (Fl)-GRPRTSSFAEG. A stock solution of 20 μM is made up in 1×IMAP Reaction Buffer. […]
The assay is initiated by the addition of 2.5-μL aliquots of a solution containing 200 nM of fluorescently-labeled peptide substrate and 4 nM AKT-1. […] The reaction is then quenched by the addition of 15 μL of Binding Solution, centrifuged again and incubated for an additional 30 minutes at ambient temperature prior to reading on a Victor 1420 Multilabel HTS Counter configured to measure fluorescence polarization.

Sequence of full-length human recombinant active AKT-1 (P31749 whole entry): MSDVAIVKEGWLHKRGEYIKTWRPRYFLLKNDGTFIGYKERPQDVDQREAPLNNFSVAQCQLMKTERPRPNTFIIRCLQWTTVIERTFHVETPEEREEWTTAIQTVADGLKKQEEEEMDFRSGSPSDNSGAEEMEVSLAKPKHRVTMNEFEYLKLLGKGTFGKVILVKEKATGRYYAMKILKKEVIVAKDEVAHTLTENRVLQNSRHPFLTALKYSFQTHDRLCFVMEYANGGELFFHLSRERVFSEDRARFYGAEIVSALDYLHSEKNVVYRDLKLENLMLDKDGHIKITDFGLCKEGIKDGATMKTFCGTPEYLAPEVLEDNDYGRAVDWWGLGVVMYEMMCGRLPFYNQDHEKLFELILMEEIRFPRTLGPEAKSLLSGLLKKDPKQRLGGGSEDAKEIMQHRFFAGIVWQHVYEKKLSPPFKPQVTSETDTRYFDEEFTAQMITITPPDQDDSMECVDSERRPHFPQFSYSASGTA

`CO[C@H]1CC[C@H](NC[C@@H](C(=O)N2CCN(c3ncnc4c3[C@H](C)C[C@H]4O)CC2)c2ccc(Cl)c(F)c2)CC1` [Example 1, (S)-2-(4-chloro-3-fluorophenyl)-1-(4-((5R,7R)-7-hydroxy-5-methyl-6,7-dihydro-5H-cyclopenta[d]pyrimidin-4-yl)piperazin-1-yl)-3-((1r,4S)-4-methoxycyclohexylamino)propan-1-one] was tested, and the IC50 was less than 500 nM.
